Where two headings read alike, the source gives them in different places.
Legend:
delta opioid receptor [1] = molecular target: T1, delta opioid receptor (Rattus norvegicus, UniProt P33533); experiment: Rat brain delta opioid receptor binding assay; settings: rat forebrain, [3H]naltrindole ligand
T1 construct: the forebrains were homogenized in Tris buffer in a Teflon®-glass homogenizer; from tissue; host or cells: forebrain of male Wistar rats, particulate (membrane) preparation

delta opioid receptor [2] = molecular target: T2, delta opioid receptor (Mus musculus, UniProt P32300); experiment: [35S]GTPγS binding assay in NG108-15 cell membranes (delta opioid functional assay), 200 nM screen; type: biochemical; settings: NG108-15 cell membranes; for EC50 / GTPγS δ-RelEfficacy @200 nM: averages if tested more than once; for GTPγS δ-opioid receptor Rel Efficacy: relative efficacy from dose response; for GTPγS δ-RelEfficacy @200 nM: 200 nM test compound, relative to calculated max of SNC80 dose response curve
T2 construct: NG108-15 cell membranes were purchased from Applied Cell Sciences (Rockville, Md.); host or cells: NG108-15 cell membranes

[3] = δ-binding (Naltrindole ligand) Ki
[4] = read-out: GTPγS δ-opioid receptor EC50
[5] = read-out: δ-binding (Naltrindole ligand) Ki
[6] = GTPγS δ-opioid receptor EC50 (μM)

T2 sequence (P32300 whole entry): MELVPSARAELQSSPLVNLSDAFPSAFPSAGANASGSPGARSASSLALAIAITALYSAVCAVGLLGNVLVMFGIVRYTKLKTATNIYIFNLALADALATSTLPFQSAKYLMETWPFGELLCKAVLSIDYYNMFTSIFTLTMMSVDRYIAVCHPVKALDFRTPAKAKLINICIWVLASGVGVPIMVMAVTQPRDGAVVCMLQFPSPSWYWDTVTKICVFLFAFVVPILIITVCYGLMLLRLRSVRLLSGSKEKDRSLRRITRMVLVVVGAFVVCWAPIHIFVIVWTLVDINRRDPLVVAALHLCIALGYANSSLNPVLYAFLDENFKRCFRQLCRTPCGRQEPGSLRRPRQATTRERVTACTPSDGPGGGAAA
T1 sequence (P33533 whole entry): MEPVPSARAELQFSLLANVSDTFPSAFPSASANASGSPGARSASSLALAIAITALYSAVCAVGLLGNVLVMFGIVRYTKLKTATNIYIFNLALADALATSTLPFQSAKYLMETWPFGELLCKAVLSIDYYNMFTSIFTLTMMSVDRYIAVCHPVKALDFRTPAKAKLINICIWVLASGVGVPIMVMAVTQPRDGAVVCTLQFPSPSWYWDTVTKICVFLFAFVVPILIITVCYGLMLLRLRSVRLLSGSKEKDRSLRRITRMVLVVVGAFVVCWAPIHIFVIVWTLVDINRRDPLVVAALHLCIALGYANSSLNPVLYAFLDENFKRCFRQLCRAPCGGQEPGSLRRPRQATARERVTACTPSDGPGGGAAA

Which Ki (delta opioid receptor [1]; [3]) does the source give for `COc1cccc(Oc2nc(-c3cncnc3)ncc2NC[C@@H]2CCCN2)c1` [Cpd 99] here?
The Ki was 59 nM.

What about the EC50 (delta opioid receptor [2]; [4]) of the same compound?
The EC50 was 0.939 µM.

For `CCCCOc1ccc(Oc2nc(-c3cncc(F)c3)ncc2NC[C@@H]2CCCN2)cc1` [Cpd 127], which Ki (delta opioid receptor [1]; [5]) is on record?
Its Ki is 224 nM.

For `COc1ccc(Oc2nc(-c3cccc4cc[nH]c34)ncc2NC[C@@H]2CCCN2)cc1` [Cpd 119], which Ki (delta opioid receptor [1]; [5]) is on record?
Its Ki is 4020 nM.

`CCCCOc1ccc(Oc2nc(-c3cncc(C#N)c3)ncc2NC[C@@H]2CCCN2)cc1` [Cpd 125] was tested. Which Ki (delta opioid receptor [1]; [3]) did it give?
Its Ki is 78 nM.

Which Ki (delta opioid receptor [1]; [5]) does the source give for `COc1ccc(Oc2nc(-c3cc(Cl)cc(Cl)c3)ncc2NC[C@@H]2CCCN2)cc1` [Cpd 94] here?
Its Ki is 143 nM.

How did the Ki (delta opioid receptor [1]; [5]) turn out when `COc1ccc(Oc2nc(-c3ccc4cc[nH]c4c3)ncc2NC[C@@H]2CCCN2)cc1` [Cpd 118] was run?
The Ki was 155 nM.

With `COc1ccc(Oc2nc(-c3cncc(F)c3)ncc2NCC2CNCCO2)cc1` (stereo not drawn) [Cpd 276] as the compound, how does the Ki (delta opioid receptor [1]; [5]) read?
The Ki was 227 nM.

For `CCCCOc1ccc(Oc2nc(-c3cncnc3)ncc2NC[C@@H]2CCCN2)cc1` [Cpd 126], which Ki (delta opioid receptor [1]; [5]) is on record?
Its Ki is 565 nM.

Which results are given for `COc1ccc(Oc2nc(-c3cncc(SC)c3)ncc2NC2CCCC(N)C2)cc1` (racemic) [Cpd 310]?
EC50 (delta opioid receptor [2]; [6]): 0.031 µM; GTPγS δ-opioid receptor Rel Efficacy (delta opioid receptor [2]): 1.042

With `COc1ccc(Oc2nc(-c3cncc(C#N)c3)ncc2NCc2ncc[nH]2)cc1` [Cpd 284] as the compound, how does the “GTPγS δ-RelEfficacy @200 nM” value (delta opioid receptor [2]) read?
Its value is 0.600.

What about the EC50 (delta opioid receptor [2]; [6]) of the same compound?
Its EC50 is 0.055 µM.

What about the “GTPγS δ-opioid receptor Rel Efficacy” value (delta opioid receptor [2]) of the same compound?
The value was 0.609.

For `COc1ccc(Oc2nc(-c3cnccn3)ncc2NC[C@@H]2CCCN2)cc1` [Cpd 120], which Ki (delta opioid receptor [1]; [5]) is on record?
Its Ki is 104 nM.

Which results are given for `COc1ccc(Oc2nc(-c3cnc(Cl)c(C)c3)ncc2NC[C@@H]2CCCN2)cc1` [Cpd 266]?
EC50 (delta opioid receptor [2]; [6]): 0.018 µM; GTPγS δ-opioid receptor Rel Efficacy (delta opioid receptor [2]): 1.041

With `Cc1ccc(Oc2nc(-c3cccnc3)ncc2NC[C@@H]2CCCN2)c(F)c1F` [Cpd 192] as the compound, how does the “GTPγS δ-RelEfficacy @200 nM” value (delta opioid receptor [2]) read?
Its value is 0.135.

What does the source list for `COc1ccc(Oc2nc(-c3cccnc3)ncc2NC2CCCC(N)C2)cc1` (single isomer, unassigned) [Cpd 323]?
EC50 (delta opioid receptor [2]; [6]): 0.06 µM; GTPγS δ-opioid receptor Rel Efficacy (delta opioid receptor [2]): 0.988

Which results are given for `COc1ccc(Oc2nc(-c3cncc(CO)c3)ncc2NC[C@@H]2CCCN2)cc1` [Cpd 269, (5-{4-(4-Methoxy-phenoxy)-5-[(pyrrolidin-2-(S)-ylmethyl)-amino]-pyrimidin-2-yl}-pyridin-3-yl)-methanol]?
EC50 (delta opioid receptor [2]; [6]): 0.053 µM; GTPγS δ-opioid receptor Rel Efficacy (delta opioid receptor [2]): 0.984

For `COc1ccc(Oc2nc(-c3cnc(Cl)cc3C)ncc2NC[C@@H]2CCCN2)cc1` [Cpd 265], which EC50 (delta opioid receptor [2]; [6]) is on record?
Its EC50 is 0.053 µM.

What about the “GTPγS δ-opioid receptor Rel Efficacy” value (delta opioid receptor [2]) of the same compound?
Its value is 1.024.

With `COc1ccc(Oc2nc(-c3cncc(C)c3)ncc2NC2CCCC(N)C2)cc1` (stereo not drawn) [Cpd 315] as the compound, how does the EC50 (delta opioid receptor [2]; [6]) read?
The EC50 was 0.042 µM.

And the “GTPγS δ-opioid receptor Rel Efficacy” value (delta opioid receptor [2])?
The value was 1.019.

`COCCOc1ccc(Oc2nc(-c3cncc(C)c3)ncc2NC[C@@H]2CCCN2)cc1` [Cpd 242] was tested. Which “GTPγS δ-RelEfficacy @200 nM” value (delta opioid receptor [2]) did it give?
The value was 0.413.

What does the source list for `CC[C@@H]1CN(c2cnc(-c3cncc(OC)c3)nc2Oc2ccc(OC)cc2)CCN1` [Cpd 361]?
EC50 (delta opioid receptor [2]; [6]): 0.07 µM; GTPγS δ-opioid receptor Rel Efficacy (delta opioid receptor [2]): 0.962

How did the EC50 (delta opioid receptor [2]; [4]) turn out when `COc1ccc(Oc2nc(-c3cccnc3)ncc2NC[C@@H]2C[C@H](O)CN2)cc1` [Cpd 272] was run?
The EC50 was over 1 µM.

For `COc1ccc(Oc2nc(-c3cccc4[nH]ccc34)ncc2NC[C@@H]2CCCN2)cc1` [Cpd 117], which Ki (delta opioid receptor [1]; [5]) is on record?
Its Ki is 157 nM.

Which EC50 (delta opioid receptor [2]; [6]) does the source give for `COc1ccc(Oc2nc(-c3cncc(SC)c3)ncc2N[C@@H]2CCC[C@H](N)C2)cc1` [Cpd 317] here?
Its EC50 is over 1 µM.

With `CN1CCN(C(=O)c2cccc(Oc3nc(-c4cncc(F)c4)ncc3NC[C@@H]3CCCN3)c2)CC1` [Cpd 174] as the compound, how does the “GTPγS δ-RelEfficacy @200 nM” value (delta opioid receptor [2]) read?
The value was 0.205.

What does the source list for `COc1ccc(Oc2nc(-c3cccnc3)ncc2NC[C@@H]2C[C@@H](O)CN2)cc1` [Cpd 270, 5-(S)-{[4-(4-Methoxy-phenoxy)-2-(pyridin-3-yl)-pyrimidin-5-ylamino]-methyl}-pyrrolidin-3-(R)-ol]?
EC50 (delta opioid receptor [2]; [4]): 0.197 µM; GTPγS δ-opioid receptor Rel Efficacy (delta opioid receptor [2]): 0.820

What does the source list for `COc1ccc(Oc2nc(-c3cncc(C)c3)ncc2N[C@H]2CCNC2)cc1` [Cpd 257]?
EC50 (delta opioid receptor [2]; [6]): 0.095 µM; GTPγS δ-opioid receptor Rel Efficacy (delta opioid receptor [2]): 0.830

For `COCCOc1ccc(Oc2nc(-c3cncc(SC)c3)ncc2NC[C@@H]2CCCN2)cc1` [Cpd 241], which “GTPγS δ-RelEfficacy @200 nM” value (delta opioid receptor [2]) is on record?
Its value is 0.381.

How did the “GTPγS δ-RelEfficacy @200 nM” value (delta opioid receptor [2]) turn out when `O=C(c1cccc(Oc2nc(-c3cncc(F)c3)ncc2NC[C@@H]2CCCN2)c1)N1CCCCC1` [Cpd 172] was run?
Its value is 0.246.

Which “GTPγS δ-RelEfficacy @200 nM” value (delta opioid receptor [2]) does the source give for `Cc1ccccc1Oc1nc(-c2cncc(Cl)c2)ncc1NC[C@@H]1CCCN1` [Cpd 227] here?
The value was 0.480.

What about the EC50 (delta opioid receptor [2]; [4]) of the same compound?
The EC50 was 0.246 µM.

What about the “GTPγS δ-opioid receptor Rel Efficacy” value (delta opioid receptor [2]) of the same compound?
The value was 1.093.

What does the source list for `COc1ccc(Oc2nc(-c3cncc(C#N)c3)ncc2N2CC3CC(C2)N3)cc1` [Cpd 338]?
GTPγS δ-RelEfficacy @200 nM (delta opioid receptor [2]): 0.723; EC50 (delta opioid receptor [2]; [4]): 0.197 µM; GTPγS δ-opioid receptor Rel Efficacy (delta opioid receptor [2]): 0.956

— patent publication US8513271B2, “Pyrimidine compounds as delta opioid receptor modulators” (Janssen Pharmaceutica, NV, priority 2009, dated 2013)
